In this experiment the target is T1, purified human placenta 20S proteasome (Homo sapiens, UniProt P28074).
T1 construct: 1 μl purified human placenta 20S proteasome; tissue Diabetes Forschungsinstitut, Düsseldorf, Germany; host or cells: human placenta
The experiment can be described thus: Inhibition of the chymotrypsin-like activity of the 20S proteasome (Suc-LLVY-AMC hydrolysis). The following applies: Suc-LLVY-AMC substrate, 60 min preincubation at room temperature, Table 1. The format is biochemical. The source says:
It is based on the hydrolysis of the fluorogenic peptide Suc-LLVY-AMC (Succinyl-leucine-leucine-valine-tyrosine-7-amino-4-methyl-coumarin), which is cleaved exclusively at the Y-AMC bond by the 20S proteasome. Hydrolysis of this peptide is accompanied by an increase in fluorescence intensity [λex (excitation wavelength): 355 nm; λem (emission wavelength): 460 nm] due to release of the internally quenched […] fluorescence that accompanies diffusion apart of the hydrolysis product Suc-LLVY.
2 μl of a 1 mM solution of a test compound in DMSO (dimethylsulfoxide, 20 μM final concentration in the well) are preincubated for 60 min at room temperature in black 96-well microtiter plates together with a mixture of 1 μl purified human placenta 20S proteasome (Diabetes Forschungsinstitut, Düsseldorf, Germany; about 100 ng proteasome, depending on the proteasome preparation) and 47 μl buffer-Ca [5 mM CaCl2, 20 mM Tris/HCl (Tris-(hydroxymethyl)-amino-methane hydrochloride) pH 8.0]. 3 μl of a 2.67 mM solution of Suc-LLVY-AMC (Bachem, Switzerland) in DMSO (80 μM final concentration in the well) and 47 μl buffer-Ca are mixed and added. The resulting mixture is incubated for 3-24 h at 37° C. If desired, proteolysis of the substrate can be stopped by addition of 50 μl stop solution (100 mM monochloroacetic acid, 130 mM NaOH, 100 mM acetic acid, pH=4.3). The fluorescence is monitored with a FLUOROSKAN ASCENT™ microtiter plate reader.
To each measure series two control experiments have to be carried out:
1.) 0% value: 2 μl DMSO are used in the above described assay instead of 2 μl of a 1 mM solution of a test compound in DMSO and 48 μl buffer-Ca instead of a mixture of 47 μl buffer-Ca and 1 μl purified proteasome.
2.) 100% value: in the above described assay 2 μl DMSO are used instead of 2 μl of a 1 mM solution of the test compound in DMSO.
The IC50 value is defined as that concentration of a compound at which the remaining activity is 50%.
Regarding `COc1ccc(CNC(=O)[C@@H](NC(=O)[C@H](NCc2cccc3ccccc23)[C@H](O)[C@H](Cc2ccccc2)NC(=O)[C@@H](NC(=O)OCc2ccccc2)C(C)(C)C)C(C)C)c(O)c1` [Example 1, ((S)-1-{(1S,2R,3R)-1-Benzyl-2-hydroxy-3-[(S)-1-(2-hydroxy-4-methoxy-benzylcarbamoyl)-2-methyl-propylcarbamoyl]-3-[(naphthalen-1-ylmethyl)-amino]-propylcarbamoyl}-2,2-dimethyl-propyl)-carbamic acid benzyl ester], 0.26 µM corresponded to half-maximal inhibition (IC50).

Turning to `COc1ccc(CNC(=O)[C@@H](NC(=O)[C@H](NCc2ccc(N(C)C)cc2)[C@H](O)[C@H](Cc2ccccc2)NC(=O)[C@@H](NC(=O)OCc2ccccc2)C(C)(C)C)C(C)C)c(O)c1` [Example 2, ((S)-1-{(1S,2R,3R)-1-Benzyl-3-(4-dimethylamino-benzylamino)-2-hydroxy-3-[(S)-1-(2-hydroxy-4-methoxy-benzylcarbamoyl)-2-methyl-propylcarbamoyl]-propylcarbamoyl}-2,2-dimethyl-propyl)-carbamic acid benzyl ester], half-maximal inhibition (IC50) was put at 0.6 µM. Turning to `COc1ccc(CN[C@@H](C(=O)N[C@H](C(=O)NCc2cc(Br)ccc2O)C(C)C)[C@H](O)[C@H](Cc2ccccc2)NC(=O)[C@@H](NC(=O)OCc2ccccc2)C(C)(C)C)cc1` [Example 3, {(S)-1-[(1S,2R,3R)-1-Benzyl-3-[(S)-1-(5-bromo-2-hydroxy-benzyl-carbamoyl)-2-methyl-propylcarbamoyl]-2-hydroxy-3-(4-methoxy-benzylamino)-propylcarbamoyl]-2,2-dimethyl-propyl}-carbamic acid benzyl ester], the IC50 (in general, the concentration at which inhibition is half-maximal) was 0.8 µM. As for `COc1cccc(CN[C@@H](C(=O)N[C@H](C(=O)NCc2ccc(OC)cc2O)C(C)C)[C@H](O)[C@H](Cc2ccccc2)NC(=O)[C@@H](NC(=O)OCc2ccccc2)C(C)(C)C)c1` [Example 4, {(S)-1-[(1S,2R,3R)-1-Benzyl-2-hydroxy-3-[(S)-1-(2-hydroxy-4-methoxy-benzylcarbamoyl)-2-methyl-propylcarbamoyl]-3-(3-methoxy-benzylamino)-propylcarbamoyl]-2,2-dimethyl-propyl}-carbamic acid benzyl ester], it took 1.5 µM to reach half-maximal inhibition (IC50). The same measure for `COc1ccc(CNC(=O)[C@@H](NC(=O)[C@H](NCc2ccc(OC)cc2OC)[C@H](O)[C@H](Cc2ccccc2)NC(=O)[C@@H](NC(=O)OCc2ccccc2)C(C)(C)C)C(C)C)c(O)c1` [Example 5, ((S)-1-{(1S,2R,3R)-1-Benzyl-3-(2,4-dimethoxy-benzylamino)-2-hydroxy-3-[(S)-1-(2-hydroxy-4-methoxy-benzylcarbamoyl)-2-methyl-propylcarbamoyl]-propylcarbamoyl}-2,2-dimethyl-propyl)-carbamic acid benzyl ester]: 1.6 µM. Turning to `COc1ccc(CNC(=O)[C@@H](NC(=O)[C@H](NCc2cc(OC)c(OC)c(OC)c2)[C@H](O)[C@H](Cc2ccccc2)NC(=O)[C@@H](NC(=O)OCc2ccccc2)C(C)(C)C)C(C)C)c(O)c1` [Example 6, {(S)-1-[(1S,2R,3R)-1-Benzyl-2-hydroxy-3-[(S)-1-(2-hydroxy-4-methoxy-benzylcarbamoyl)-2-methyl-propylcarbamoyl]-3-(3,4,5-trimethoxy-benzylamino)-propylcarbamoyl]-2,2-dimethyl-propyl}-carbamic acid benzyl ester], the IC50 was determined as 0.05 µM. The same measure for `COc1ccc(CNC(=O)[C@@H](NC(=O)[C@H](NCc2ccc(OC)c(OC)c2OC)[C@H](O)[C@H](Cc2ccccc2)NC(=O)[C@@H](NC(=O)OCc2ccccc2)C(C)(C)C)C(C)C)c(O)c1` [Example 7, {(S)-1-[(1S,2R,3R)-1-Benzyl-2-hydroxy-3-[(S)-1-(2-hydroxy-4-methoxy-benzylcarbamoyl)-2-methyl-propylcarbamoyl]-3-(2,3,4-trimethoxy-benzylamino) -propylcarbamoyl]-2,2-dimethyl-propyl}-carbamic acid benzyl ester]: 0.1 µM. The compound `COc1ccc(CNC(=O)[C@@H](NC(=O)[C@H](NCc2ccc(OC)c(OC)c2)[C@H](O)[C@H](Cc2ccccc2)NC(=O)[C@@H](NC(=O)OCc2ccccc2)C(C)(C)C)C(C)C)c(O)c1` [Example 8, ((S)-1-{(1S,2R,3R)-1-Benzyl-3-(3,4-dimethoxy-benzylamino)-2-hydroxy-3-[(S)-1-(2-hydroxy-4-methoxy-benzylcarbamoyl)-2-methyl-propylcarbamoyl]-propylcarbamoyl}-2,2-dimethyl-propyl)-carbamic acid benzyl ester] returned an IC50 of 0.15 µM. As to `COc1cc(CN[C@@H](C(=O)N[C@H](C(=O)NCc2ccc(OC)cc2O)C(C)C)[C@H](O)[C@H](Cc2ccccc2)NC(=O)[C@@H](NC(=O)OCc2ccccc2)C(C)(C)C)cc(OC)c1` [Example 9, ((S)-1-{(1S,2R,3R)-1-Benzyl-3-(3,5-dimethoxy-benzylamino)-2-hydroxy-3[(S)-1-(2-hydroxy-4-methoxy-benzylcarbamoyl)-2-methyl-propylcarbamoyl]-propylcarbamoyl}-2,2-dimethyl-propyl)-carbamic acid benzyl ester], 0.19 µM corresponded to half-maximal inhibition (IC50).

Compound `COc1ccc(CNC(=O)[C@@H](NC(=O)[C@H](NCc2cc(OC)c(OC)cc2OC)[C@H](O)[C@H](Cc2ccccc2)NC(=O)[C@@H](NC(=O)OCc2ccccc2)C(C)(C)C)C(C)C)c(O)c1` [Example 10, {(S)-1-[(1S,2R,3R)-1-Benzyl-2-hydroxy-3-[(S)-1-(2-hydroxy-4-methoxy-benzylcarbamoyl)-2-methyl-propylcarbamoyl]-3-(2,4,5-trimethoxy-benzylamino)-propylcarbamoyl]-2,2-dimethyl-propyl}-carbamic acid benzyl ester] gave a concentration for half-maximal inhibition (IC50) of 0.2 µM. In turn, `COc1ccc(CNC(=O)[C@@H](NC(=O)[C@H](NCc2cc(OC)c(OC)c(OC)c2)[C@H](O)[C@H](Cc2ccccc2)NC(=O)[C@@H](NC(=O)OC(C)(C)C)C(C)(C)C)C(C)C)c(O)c1` [Example 11, {(S)-1-[(1S,2R,3R)-1-Benzyl-2-hydroxy-3-[(S)-1-(2-hydroxy-4-methoxy-benzylcarbamoyl)-2-methyl-propylcarbamoyl]-3-(3,4,5-trimethoxy-benzylamino)-propylcarbamoyl]-2,2-dimethyl-propyl}-carbamic acid tert-butyl ester] returned an IC50 of 1.04 µM.

In the case of `COc1ccc(CNC(=O)[C@@H](NC(=O)[C@H](NCc2cc(OC)c(OC)c(OC)c2)[C@H](O)[C@H](Cc2ccccc2)NC(=O)[C@@H](NC(=O)Cc2cccc3ccccc23)C(C)(C)C)C(C)C)c(O)c1` [Example 12, (2R,3R,4S)-4-[(S)-3,3-Dimethyl-2-(2-naphthalen-1-yl-acetylamino)-butyrylamino]-3-hydroxy-5-phenyl-2-(3,4,5-trimethoxy-benzylamino)-pentanoic acid [(S)-1-(2-hydroxy-4-methoxy-benzylcarbamoyl)-2-methyl-propyl]-amide], half-maximal inhibition (IC50) was put at 0.011 µM.

Consider `COc1ccc(CNC(=O)[C@@H](NC(=O)[C@H](NCc2ccc(OC)c(OC)c2OC)[C@H](O)[C@H](Cc2ccccc2)NC(=O)[C@@H](NC(=O)Cc2cccc3ccccc23)C(C)(C)C)C(C)C)c(O)c1` [Example 13, (2R,3R,4S)-4-[(S)-3,3-Dimethyl-2-(2-naphthalen-1-yl-acetylamino)-butyrylamino]-3-hydroxy-5-phenyl-2-(2,3,4-trimethoxy-benzylamino)-pentanoic acid [(S)-1-(2-hydroxy-4-methoxy-benzylcarbamoyl)-2-methyl-propyl]-amide], for which half-maximal inhibition (IC50) was put at 0.018 µM. Next, `COc1ccc(CNC(=O)[C@@H](NC(=O)[C@H](NCc2cc(OC)c(OC)cc2OC)[C@H](O)[C@H](Cc2ccccc2)NC(=O)[C@@H](NC(=O)Cc2cccc3ccccc23)C(C)(C)C)C(C)C)c(O)c1` [Example 14, (2R,3R,4S)-4-[(S)-3,3-Dimethyl-2-(2-naphthalen-1-yl-acetylamino)-butyrylamino]-3-hydroxy-5-phenyl-2-(2,4,5-trimethoxy-benzylamino)-pentanoic acid [(S)-1-(2-hydroxy-4-methoxy-benzylcarbamoyl)-2-methyl-propyl]-amide]: 0.029 µM. Regarding `COc1ccc(CNC(=O)[C@@H](NC(=O)[C@H](NCc2cccc3ccccc23)[C@H](O)[C@H](Cc2ccccc2)NC(=O)[C@@H](NC(=O)Cc2cccc3ccccc23)C(C)(C)C)C(C)C)c(O)c1` [Example 15, (2R,3R,4S)-4-[(S)-3,3-Dimethyl-2-(2-naphthalen-1-yl-acetylamino)-butyrylamino]-3-hydroxy-2-[(naphthalen-1-ylmethyl)-amino]-5-phenyl-pentanoic acid [(S)-1-(2-hydroxy-4-methoxy-benzylcarbamoyl)-2-methyl-propyl]-amide], it took 0.15 µM to reach half-maximal inhibition (IC50).

(Values after patent US20060205673A1, “2-Amino-3-hydroxy-4-tert-leucyl-amino-5-phenyl-pentanoic acid amide derivatives” (priority 2000, published 2006).)
